Experiment [1] concerns TFK-1. Briefly: Cholangiocarcinoma cell viability, TFK-1. The format is cell-based. As for the experimental part:
(§1) Cell viability assays. Cell lines were seeded in a 96 well plate (5000 cells per well). After overnight incubation, cells were treated with AGX51 and incubated for 24 hours then MTT reagent (5 mg/mL) was added per well and the cells were incubated for four hours. Following incubation, media was aspirated and 200 μL DMSO was added per well. Absorbance was then measured at 570 nm using a plate reader (Synergy 2, BioTek). Cell growth profiles were determined by seeding 38,000 cells in a 24-well plate, in triplicate for each time point, and counting the cells on days 1, 3 and 5 after seeding, using trypan blue exclusion of dead cells.
(§2) The effects of AGX51 and AGX-A on cholangiocarcinoma cell viability were assessed for the six different cholangiocarcinoma cell lines. The measured IC50 values (in μM) from these studies are provided in Table 2 below, along with the ratio of the AGX51 IC50 to the AGX-A IC50 to aid in comparison.

Experiment [2] has as its system HCT116 cells. Briefly: IC50 in HCT116 cells (FIG. 7C). The format is cell-based.
Experiment [3] has as its system WITT. The experiment is described as follows: Cholangiocarcinoma cell viability, WITT. The experiment is classed as cell-based. The method, then:
as §1, §2

Experiment [4] addresses T1, Id1 (Mus musculus, UniProt P20067).
T1 construct: GST (N, cleaved yes); made in house; host or cells: E. coli Rosetta 2(DE3)
T1 sequence (P20067 1-168): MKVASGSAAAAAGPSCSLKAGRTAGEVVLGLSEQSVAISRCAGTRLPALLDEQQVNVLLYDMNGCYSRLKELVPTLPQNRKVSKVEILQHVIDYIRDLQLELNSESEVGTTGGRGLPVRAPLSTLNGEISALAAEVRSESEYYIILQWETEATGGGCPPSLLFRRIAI
The experiment is described as follows: Circular dichroism (CD) of Id1. The format is binding. As for the experimental part: Id protein purification. pGEV-PSP-mId1 and mId3 expression constructs were transformed into Rosetta 2(DE3) Competent Cells (Sigma Millipore) for protein expression. To produce recombinant GST-tagged protein, a 50 mL LB/Ampicillin (100 μg/m)+Chloramphenicol (25 μg/mL) culture was grown overnight at 37° C. Early the next day, the overnight culture was diluted 1:100 into 6 L LB/Ampicillin+Chloramphenicol and cultured at 37° C. for about four hours until OD600=0.7. Cultures were induced with 1 mM IPTG and incubated at 16° C. for 16-18 hours. Cells were harvested by centrifugation at 4000 rpm for 15 minutes at 4° C. and the pellet was resuspended in lysis buffer (50 mM Tris pH 8.0; 400 mM NaCl; 0.5 mM TCEP, Protease Inhibitor Cocktail) (25 mL/L of culture). To lyse the cells, Triton X-100 and lysozyme were added to 0.1% and 10 μg/mL respectively, incubated for 30 minutes on ice and sonicated. Lysates were spun at 17,000 rpm for 30 minutes at 4° C. and supernatants were filtered through a […] filter before incubation with glutathione sepharose for two hours at 4° C. The sepharose with bound protein was run through a polypropylene column and washed twice with 50 mL wash buffer (50 mM Tris pH 8.0; 400 mM NaCl) before protein was eluted with 10 mL 50 mM glutathione elution buffer, pH 8.0. Protein was subjected to buffer exchange with PD10 columns (Sigma) into 12 mL storage buffer (50 mM Tris HCl pH 8.0, 400 mM NaCl, 10 mM EDTA, 1 mM DTT, 10% Glycerol).
GST-tag was cleaved with PreScission Protease (0.1 μL of 0.3 μg/μL PreScission Protease cleaves 10 μg of GST-mId1 when incubated at 4° C. for four hours) and incubated with Glutathione Sepharose to separate out the cleaved GST-tag. The cleaved mId1 protein was further cleaned by incubation with GST antibodies (Abcam #ab9085-200 μL anti-GST rabbit polyclonal; ThermoFisher #MA4-004 anti-GST mouse monoclonal) before Coomassie gel analysis. Cleaved protein was concentrated to desired strength using Amicon 3000MCO Ultra-4 centrifugal columns (UFC800308).
Circular dichroism. […]
(In general: Circular dichroism is the unequal absorption of left and right circularly polarised light.)

The subject of experiment [5] is SNU-1196. The experiment is described as follows: Cholangiocarcinoma cell viability, SNU-1196. The format is cell-based. The method, then: as §1, §2
For experiment [6], the system named is SNU-1079. The experiment is described as follows: Cholangiocarcinoma cell viability, SNU-1079. The experiment is classed as cell-based. The method, then: as §1, §2
For experiment [7], the system named is HUCC-T1. The experiment is described as follows: Cholangiocarcinoma cell viability, HUCC-T1. The format is cell-based. As for the experimental part: as §1, §2
In experiment [8] the target is T2, NanoLuc-ID1 (Homo sapiens, UniProt P41134).
T2 construct: expressed in transfected cells; host or cells: 293T cells, pcDNA3.1, digitonin-permeabilized
T2 sequence (P41134 whole entry): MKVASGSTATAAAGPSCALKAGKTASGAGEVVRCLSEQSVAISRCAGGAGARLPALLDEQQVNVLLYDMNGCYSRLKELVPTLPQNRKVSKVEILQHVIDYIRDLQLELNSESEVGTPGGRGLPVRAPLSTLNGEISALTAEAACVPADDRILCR
The experiment is described as follows: NanoBRET target engagement assay in digitonin-permeabilized 293T cells. The format is cell-based. The note with it: 2 μM tracer, 0-60 μM competitor, 50 μg/mL digitonin. As for the experimental part:
NanoBRET™ target engagement assay. A N-terminal NanoLuc® luciferase ID1 fusion protein was synthesized by Genewiz (South Plainfield, N.J., USA) into the pUC57 backbone and then cloned into the pcDNA3.1 plasmid with EcoRI-HF and XbaI (both enzymes from New England Biolabs, Ipswich, Mass., USA). The assay was performed essentially as described in the NanoBRET™ TE Intracellular BET BRD Assay kit manual (Promega Corporation, Madison, Wis., USA). Briefly, cells were transfected and after 24 hours were plated onto flat bottom, non-binding surface, white, polystyrene 96-well plates (Corning Incorporated, Kennebunk, Me., USA). The AGX51 tracer was then added ([…]), followed by digitonin (Sigma, St. Louis, Mo., USA) to permeabilize the cells ([…]). The NanoBRET™ Nano-Glo® Substrate (Promega) was then added and readings taken using a GloMax Discover System instrument (Promega). For the competition assays, cells were treated with 2 μM of AGX51 tracer and 0-60 μM of AGX-A or AGX51.
This assay is based on the NanoBRET™ Target Engagement Intracellular BET BRD Assay (Promega). A construct expressing a NanoLuc® luciferase ID1 fusion protein and an AGX51-fluorescent tracer was generated (FIG. 10A). […]
(In general: Bioluminescence resonance energy transfer reports proximity on the nanometre scale.)

Experiment [9] deals with EGI-1. Briefly: Cholangiocarcinoma cell viability, EGI-1. The experiment is classed as cell-based. The method, then: as §1, §2

This note sets out measurements from patent US20220356163A1, “SMALL MOLECULE INHIBITORS OF Id PROTEINS” (MEMORIAL SLOAN KETTERING CANCER CENTER, priority 2019, published 2022).

For orientation: IC50 means the midpoint of a concentration-inhibition curve.

“Also recorded” adds a separate entry of the source. Like-named read-outs stand apart in the source and are kept apart here.

In the case of `CCC(=O)N(CCC(c1ccc2c(c1)OCO2)c1ccccc1OC)Cc1ccccc1` (racemic) [AGX51, N-(3-(benzo[d][1,3]dioxol-5-yl)-3-(2-methoxyphenyl)propyl)-N-benzylpropionamide], the IC50 in [1] (TFK-1) amounted to 15.7 µM; in experiment [2] (Homo sapiens, HCT-116, HCT116 cells, FIG. 7C), 22.3 µM; in experiment [3] it was 33.2 µM; in [5], 28.8 µM; in experiment [6] it was 23.1 µM; in experiment [7] (Homo sapiens, HuCCT-1), 14.8 µM. Further, in experiment [9] (Homo sapiens), the IC50 was found to be 15.7 µM. Besides, in experiment [4] (0, 10, 20 and 50 μM), the “alteration of Id1 secondary structure (CD spectra)” value was “significant alteration in the secondary structure of Id1”. Also, the Kd in experiment [4] (implied from saturation of CD changes, read-out: concentration at which CD changes saturated / range of dissociation constant) is around 20 µM. Besides, the “competition with AGX51 tracer” value in [8] is reported as “could be competed with AGX51”.

As for `COc1ccccc1C(CCNCc1ccccc1)c1ccc(OC(C)C)cc1` (centres unmarked) [AGX-A, N-benzyl-3-(4-isopropoxyphenyl)-3-(2-methoxyphenyl)propan-1-anine], the “dose-dependent effect on TFK1 cell viability vs AGX51” value in experiment [1] (24 hour period, FIG. 23) is recorded as “superior anti-cancer potency”. The “(AGX51 IC50)/(AGX-A IC50)” value in experiment [1] (TFK-1) is recorded as 1.33; in experiment [3], 6.25; in [5], 1.94; in [6], 3.95; in experiment [7], 3.33; in experiment [9], 3.49. In addition, the IC50 in experiment [1] (TFK-1) came out at 11.8 µM; in [3], 5.32 µM; in [5], 14.8 µM; in experiment [6], 5.84 µM; in experiment [7], 4.44 µM; in [9] it was 4.49 µM. Besides, in [2] (cell-based assays, FIGS. 7C-7D (HCT116 and 4T1)), the “fold reduction in IC50 values vs AGX51” value is on record as around 4 fold. In addition, the “relative activity in CD assay with Id1” value in [4] (comparison between compounds) is “exhibiting greater activity than AGX51; also recorded: worked at lower concentrations than AGX51”. Further, in experiment [8], the “competition with AGX51 tracer” value is reported as “more efficiently; also recorded: exhibiting greater activity than AGX51; also recorded: worked at lower concentrations than AGX51”.
